From US6867207B2, “IL-5 inhibiting 6-azauracil derivatives” (Janssen Pharmaceutica N.V., priority 1997, dated 2005) come the findings set out here.

Molecules are shown by their SMILES.

In one experiment the test system is IL-5 production. In words: In vitro inhibition of IL-5 production in human blood (phytohemagglutinin-stimulated whole blood, ELISA).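 Also: values marked with an asterisk were tested at 10 µM and unmarked values at 1 µM.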 It counts as cell-based. The conditions noted are these: test dose 1×10^−6 M, 48 hours. On the procedure: In Vitro Inhibition of IL-5 Production in Human Blood
Human Whole Blood Stimulation
Peripheral blood from healthy male donors was drawn into heparinized syringes (12.5 U heparin/ml). Blood samples were three-fold diluted in RMPI 1640 medium (Life Technologies, Belgium) supplemented with 2 mM L-glutamine, 100 U/ml penicillin and 100 μg/ml streptomycin, and 300 μl fractions were distributed in 24-well multidisc plates. Blood samples were preincubated (60 minutes at 37° C.) in a humidified 6% CO2-atmosphere with 100 μl of drug solvent (final concentration 0.02% dimethylsulfoxide in RPMI 1640) or with 100 μl of an appropriate dose of test compound before being stimulated by the addition of 100 μl of phytohemagglutinin HA17 (Murex, UK) at a final concentration of 2 μg/ml. After 48 hours, cell-free supernatant fluids were collected by centrifugation and stored at −70° C. until tested for the presence of IL-5.
IL-5 measurements were conducted as described in Van Wauwe et al. (1996, Inflamm Res, 45, 357-363) on page 358 using ELISA.
Table 9 lists the percentage inhibition of IL-5 production (column “% inh”) at a test dose of 1×10^−6 M, or in case the percentage inhibition is marked with an “*” 1×10^−5 M, the compounds of the present invention.
Background: ELISA stands for enzyme-linked immunosorbent assay.
On to `CCOCCc1nnc(C(c2ccc(Cl)cc2)c2c(Cl)cc(-n3ncc(=O)[nH]c3=O)cc2Cl)o1` (racemic) [Compound 181], for which the “% inh. (percentage inhibition of IL-5 production)” value turned out to be 55%.
Turning to `CN1CCN(Cc2sc(C(c3ccc(Cl)cc3)c3c(Cl)cc(-n4ncc(=O)[nH]c4=O)cc3Cl)nc2-c2ccccc2)CC1` (racemic) [Comp 302], the “% inh. (percentage inhibition of IL-5 production)” value came to 87%.
Take `O=c1cnn(-c2cc(Cl)c(C(c3ccc(Cl)cc3)c3nc(-c4ccc(O)cc4)cs3)c(Cl)c2)c(=O)[nH]1` (racemic) [Comp 26]: the “% inh. (percentage inhibition of IL-5 production)” value amounted to 85%.
On to `O.O=c1cnn(-c2cc(Cl)c(C(c3ccc(Cl)cc3)c3nnc(-c4ccncc4)o3)c(Cl)c2)c(=O)[nH]1` (racemic) [Compound 158], for which the “% inh. (percentage inhibition of IL-5 production)” value was found to be 92%.
On the same count and under the same terms, the result for `O=c1cnn(-c2ccc(C(c3ccc(Cl)cc3)n3cncn3)c(Cl)c2)c(=O)[nH]1` (racemic) [Comp 97] reads 26%; that for `O=c1cnn(-c2cc(Cl)c(C(Sc3nccc(N(CCO)CCO)n3)c3ccc(Cl)cc3)c(Cl)c2)c(=O)[nH]1` (racemic) [Compound 358], 63%; that for `O=c1cnn(-c2ccc(C(Sc3cccc[n+]3[O-])c3ccc(Cl)cc3)c(Cl)c2)c(=O)[nH]1` (racemic) [Compound 73], 21%.
The same measure, in the same setting: the result for `CN1CCN(c2ccnc(SC(c3ccc(Cl)cc3)c3c(Cl)cc(-n4ncc(=O)[nH]c4=O)cc3Cl)n2)CC1` (racemic) [Compound 345] reads 88%; that for `Nc1ccc(SC(c2ccc(Cl)c(C(F)(F)F)c2)c2c(Cl)cc(-n3ncc(=O)[nH]c3=O)cc2Cl)cc1` (stereo not shown) [Compound 393], 93%.
For `Cc1nc(SC(c2ccc(Cl)cc2)c2ccc(-n3ncc(=O)[nH]c3=O)cc2Cl)nc(O)c1CC1CC1` (racemic) [Compound 338], the “% inh. (percentage inhibition of IL-5 production)” value was −15%.
For `Cc1nnc(C(c2ccc(Cl)cc2)c2c(Cl)cc(-n3ncc(=O)[nH]c3=O)cc2Cl)o1` (racemic) [Compound 162], the “% inh. (percentage inhibition of IL-5 production)” value is recorded as 63%.
The same measure, in the same setting: with `O=c1cnn(-c2cc(Cl)c(C(c3ccc(Cl)cc3)c3nc(-c4cc(F)ccc4F)cs3)c(Cl)c2)c(=O)[nH]1` (racemic) [Comp 290] the figure was 92%; with `O=c1cnn(-c2ccc(C(c3ccc(Cl)cc3)c3ncc(-c4ccccc4)o3)c(Cl)c2)c(=O)[nH]1` (racemic) [Comp 103], 63%; with `Cl.O=c1cnn(-c2cc(Cl)c(C(c3ccc(Cl)cc3)c3nc(C4CCNCC4)cs3)c(Cl)c2)c(=O)[nH]1` (racemic) [Compound 230, (±)-2-[3,5-dichloro-4-[(4-chlorophenyl)[4-(4-piperidinyl)-2-thiazolyl]methyl]phenyl]-1,2,4-triazin-3,5-(2H,4H)-dione monohydrochloride], 79%.
The same measure, in the same setting: with `Cc1nc(-c2ccccc2Cl)c(C(c2ccc(Cl)cc2)c2c(Cl)cc(-n3ncc(=O)[nH]c3=O)cc2Cl)s1` (racemic) [Compound 135] the figure was 88%.
Same read-out and setting: the result for `Cc1sc(SC(c2ccc(Cl)c(C(F)(F)F)c2)c2c(Cl)cc(-n3ncc(=O)[nH]c3=O)cc2Cl)nc1-c1ccccc1` (stereo not shown) [Compound 392] reads 87%.
Turning to `COCCNC(=O)c1sc(C(c2ccc(Cl)cc2)c2c(Cl)cc(-n3ncc(=O)[nH]c3=O)cc2Cl)nc1-c1ccccc1` (racemic) [Comp 307], the “% inh. (percentage inhibition of IL-5 production)” value is 78%.
On to `Cc1nc(-c2ccccc2)c(C(c2ccc(Cl)cc2)c2ccc(-n3ncc(=O)[nH]c3=O)cc2Cl)s1` (racemic) [Compound 134], for which the “% inh. (percentage inhibition of IL-5 production)” value is reported as 95%.
The same measure, in the same setting: the result for `O=c1cnn(-c2ccc(C(O)(c3ccc(Cl)cc3)c3nc4ccccc4s3)c(Cl)c2)c(=O)[nH]1` (stereo not shown) [Comp 111] reads 61%; that for `O=c1cnn(-c2cc(Cl)c(C(Sc3cnccn3)c3ccc(Cl)c(C(F)(F)F)c3)c(Cl)c2)c(=O)[nH]1` (racemic) [Compound 401], 92%.
The same measure, in the same setting: the result for `Cc1ccc2[nH]c(SC(c3ccc(Cl)cc3)c3ccc(-n4ncc(=O)[nH]c4=O)cc3Cl)nc2c1` (racemic) [Compound 62] reads 30%.
Still for that read-out and setting: the result for `CC(C)c1sc(C(c2ccc(Cl)cc2)c2c(Cl)cc(-n3ncc(=O)[nH]c3=O)cc2Cl)nc1-c1ccccc1` (racemic) [Compound 241, (±)-2-[3,5-dichloro-4-[(4-chlorophenyl)[5-(1-methylethyl)-4-phenyl-2-thiazolyl]methyl]-phenyl-1,2,4-triazin-3,5(2H,4H)-dione] reads 95%.
For `CN(C)Cc1sc(C(c2ccc(Cl)cc2)c2c(Cl)cc(-n3ncc(=O)[nH]c3=O)cc2Cl)nc1-c1ccccc1` (racemic) [Comp 253], the “% inh. (percentage inhibition of IL-5 production)” value amounted to 96%.
On the same count and under the same terms, with `O=c1cnn(-c2cc(Cl)c(C(c3ccc(Cl)cc3)c3nc(-c4ccc(Br)cc4)cs3)c(Cl)c2)c(=O)[nH]1` (racemic) [Comp 294] the figure was 85%; with `O=c1cnn(-c2cc(Cl)c(C(Sc3nc4ccccc4s3)c3ccc(Cl)c(C(F)(F)F)c3)c(Cl)c2)c(=O)[nH]1` (stereo not shown) [Compound 385], 95%.
The same measure, in the same setting: with `Cc1nc(-c2ccccc2F)c(C(c2ccc(Cl)cc2)c2c(Cl)cc(-n3ncc(=O)[nH]c3=O)cc2Cl)s1` (racemic) [Compound 152] the figure was 87%.
On the same count and under the same terms, the result for `Nc1ccc2nc(SC(c3ccc(Cl)c(C(F)(F)F)c3)c3c(Cl)cc(-n4ncc(=O)[nH]c4=O)cc3Cl)sc2c1` (stereo not shown) [Compound 389] reads 91%; that for `O=c1cnn(-c2cc(Cl)c(C(c3ccc(Cl)c(C(F)(F)F)c3)c3nc(-c4ccccc4Cl)cs3)c(Cl)c2)c(=O)[nH]1` (racemic) [Comp 254], 86%.
With `O=c1cnn(-c2cc(Cl)c(C(c3ccc(Cl)cc3)c3nnc(-c4ccccc4)s3)c(Cl)c2)c(=O)[nH]1` (stereo not shown) [Comp 427], the “% inh. (percentage inhibition of IL-5 production)” value stood at 72%.
As to `CCOC(=O)c1nnc(C(c2ccc(Cl)cc2)c2c(Cl)cc(-n3ncc(=O)[nH]c3=O)cc2Cl)o1` (racemic) [Compound 186], the “% inh. (percentage inhibition of IL-5 production)” value was determined as 8%.
The same measure, in the same setting: the result for `O=c1cnn(-c2cc(Cl)c(C(c3ccc(Cl)cc3)c3nnc(-c4ccccc4F)o3)c(Cl)c2)c(=O)[nH]1` (racemic) [Compound 156] reads 91%.
The same measure, in the same setting: the result for `Cc1cccc(-c2nnc(C(c3ccc(Cl)cc3)c3c(Cl)cc(-n4ncc(=O)[nH]c4=O)cc3Cl)o2)c1` (racemic) [Compound 178] reads 78%; that for `O=c1cnn(-c2cc(Cl)c(C(c3ccc(Cl)cc3)c3csc(-c4cccnc4)n3)c(Cl)c2)c(=O)[nH]1` (racemic) [Compound 375], 91%.
For `Cn1cc(-c2ccccc2)nc1C(c1ccc(Cl)cc1)c1c(Cl)cc(-n2ncc(=O)[nH]c2=O)cc1Cl` (stereo not shown) [Comp 425], the “% inh. (percentage inhibition of IL-5 production)” value turned out to be 70%.
With `Cc1sc(C(c2ccc(Cl)cc2)c2c(Cl)cc(-n3ncc(=O)[nH]c3=O)cc2Cl)nc1-c1cccc(F)c1` (racemic) [Comp 287], the “% inh. (percentage inhibition of IL-5 production)” value stood at 94%.
Same read-out and setting: the result for `CN1CCCC(c2nnc(C(c3ccc(Cl)cc3)c3c(Cl)cc(-n4ncc(=O)[nH]c4=O)cc3Cl)o2)C1` (mixture of isomers) [Compound 196] reads 35%.
Same read-out and setting: with `O=c1cnn(-c2ccc(C(c3ccc(Cl)cc3)c3sc(-c4ccccc4)nc3-c3ccccc3)c(Cl)c2)c(=O)[nH]1` (racemic) [Compound 140] the figure was 45%; with `Cc1nc(C(c2ccc(Cl)cc2)c2c(Cl)cc(-n3ncc(=O)[nH]c3=O)cc2Cl)sc1C` (racemic) [Comp 16], 89%.
`Cc1nc(-c2ccccc2Cl)sc1C(c1ccc(Cl)cc1)c1c(Cl)cc(-n2ncc(=O)[nH]c2=O)cc1Cl` (racemic) [Compound 137]: the “% inh. (percentage inhibition of IL-5 production)” value came out at 64%.
Consider `CN(C)Cc1sc(C(c2ccc(Cl)cc2)c2c(Cl)cc(-n3ncc(=O)[nH]c3=O)cc2Cl)nc1-c1cccc(F)c1` (racemic) [Comp 280], for which the “% inh. (percentage inhibition of IL-5 production)” value was 96%.
The same measure, in the same setting: with `NC(c1ccc(Cl)cc1)(c1nc2ccccc2s1)c1ccc(-n2ncc(=O)[nH]c2=O)cc1Cl` (stereo not shown) [Comp 416] the figure was 79%.

Staying with this experiment, now noted: test dose 1×10^−6 M, 48 hours, read-out: % inh. (percentage inhibition of IL-5 production).
One may read the inhibition as the drop in the measured response relative to a control, in per cent. `O=c1cnn(-c2ccc(C(c3ccc(Cl)cc3)c3cccnc3)c(Cl)c2)c(=O)[nH]1` (racemic) [Compound 124, (±)-2-[3-chloro-4-[(4-chlorophenyl)-3-pyridinylmethyl]phenyl]-1,2,4-triazine-3,5(2H,4H)-dione]: the inhibition at 1 µM was 42%.
The same measure, in the same setting: the result for `O=c1cnn(-c2ccc(C(c3ccc(Cl)cc3)c3nc4ccccc4o3)c(Cl)c2)c(=O)[nH]1` (racemic) [Compound 131, (±)-2-[4-[2-benzoxazolyl(4-chlorophenyl)methyl]-3-chlorophenyl]-1,2,4-triazine-3,5(2H,4H)-dione] reads 76%.
